Measurements published in publication PMC12185669 (Archives of Toxicology, 2025).
pEC50: −log10 of the molar value. Where two headings read alike, the source gives them in different places.

Columns and labels:
[1] = Quantification in postmortem blood and urine of dipyanone-positive forensic cases; details: for concentration in blood, case #2: autoptic heart blood; for concentration in urine, case #2: autoptic urine
[2] = Metabolite identification in authentic postmortem urine samples by LC-HRMS/MS; details: for portion of the total metabolites' signal in urine: both urine samples; for Urine #1 peak area with β-gluc: postmortem urine case #1, after β-glucuronidase hydrolysis; for Urine #1 peak area with β-gluc / Urine #1 peak area / Urine #2 peak area with β-gluc / Urine #2 peak area: ND not detected; for Urine #1 peak area: postmortem urine case #1, no hydrolysis; for Urine #1 peak area / Urine #2 peak area: positive ionisation mode; for Urine #2 peak area with β-gluc: postmortem urine case #2, after β-glucuronidase hydrolysis; for Urine #2 peak area: postmortem urine case #2, no hydrolysis
Procedure: (§1) Samples were thawed at room temperature. A 100 µL aliquot was mixed with 200 µL of acetonitrile and centrifuged for 10 min at 15,000 g at room temperature. The supernatants were evaporated to dryness under nitrogen at 37 °C. The residues were reconstituted in 100 µL of a mixture containing 95% mobile phase A and 5% mobile phase B (v/v). After centrifugation under the same conditions, the supernatants were transferred to autosampler vials with glass inserts. A 10 µL volume was injected into the chromatographic system for analysis.
(§2) To investigate glucuronic acid conjugation, 100 µL of urine was mixed with 10 µL of 10 mol/L ammonium acetate (pH 5.0) and 100 µL of β-glucuronidase (5000 units), then incubated at 37 °C for 90 min. Subsequently, 400 µL of ice-cold acetonitrile was added to the mixtures, which were centrifuged for 10 min at 15,000 g at room temperature. The supernatants were evaporated to dryness under nitrogen at 37 °C and reconstituted in 100 µL of a mixture containing 95% mobile phase A and 5% mobile phase B (v/v). After centrifugation under the same conditions, the supernatants were transferred to autosampler vials with glass inserts. A 10 µL volume was injected into the chromatographic system for analysis.
(§3) The analyses were conducted by liquid chromatography-high-resolution tandem mass spectrometry (LC-HRMS/MS) with a DIONEX UltiMate 3000 liquid chromatographer coupled to a Q Exactive quadrupole-Orbitrap hybrid high-resolution mass spectrometer equipped with a heated electrospray ionisation (HESI) source from Thermo Scientific (Waltham, Massachusetts, USA).
(§4) The compounds were separated using a Kinetex Biphenyl column (150 × 2.1 mm, 2 μm) from Phenomenex (Torrance, California, USA). The separation was achieved using mobile phases A and B at a flow rate of 0.4 mL/min. The gradient elution program was as follows: 2% B was held for 2 min, then increased to 25% B over 12 min, followed by a rapid increase to 95% B within 2 min, and held for 4 min. Subsequently, the initial conditions were restored within 0.1 min and maintained for 3.9 min. The total chromatographic run time was 24 min. Throughout the analysis, the column oven temperature was maintained at 37 ± 1 °C, while the autosampler temperature was set to 10 ± 1 C.
(§5) All samples were analysed in both positive- and negative-ion modes, requiring two separate injections while maintaining the same HESI conditions. […] Prior to each analytical session, mass calibration was performed using certified calibration solutions in both positive and negative ion modes. To enhance accuracy, a lock mass list was compiled for positive- (m/z 279.0933, 144.9821, 146.9803) and negative ion modes (m/z 265.1479, 162.9824, 248.9604).
(§6) The mass spectrometer acquired from 1 to 20 min of the chromatographic run in full-scan HRMS (FullMS)/data-dependent MS/MS (ddMS^2) mode. The FullMS settings were as follows: range, m/z 100 to 650; resolution at full width at half maximum at m/z 200, 70,000; automatic gain control target, 1 × 10^6; and maximum injection time, 200 ms. For ddMS^2, the settings were: automatic gain control target, 2 × 10^5; maximum injection time, 64 ms; isolation window, m/z 1.2; resolution, 17,500; and stepped normalised collision energy, 40, 70, and 90 a.u. A maximum of five ddMS^2 scans were triggered for each FullMS scan, with a minimum intensity of 10^4 and dynamic exclusion of 2.0 s..
(§7) LC-HRMS/MS data were processed with Thermo Scientific Compound Discoverer in a single analysis.

[3] = system: ten-donor-pooled cryopreserved human hepatocytes; assay: Human hepatocyte incubation, LC-HRMS/MS metabolite identification; assay type: in vitro ADME; details: for Hepatocytes peak area: LC-HRMS, positive ionisation mode, three hours of incubation with human hepatocytes, ND not detected; for portion of the total metabolites' signal: hepatocyte incubation, three hours
Procedure: Dipyanone incubations with human hepatocytes were carried out as previously described (Carlier et al. [2022]; Taoussi et al. [2024]). Briefly, the hepatocytes were thawed in 50 mL of thawing medium at 37 °C. After centrifugation (100 g, 5 min), the supernatant was discarded and the pellet was resuspended in 50 mL of SWM at 37 °C. Following a second centrifugation (100 g, 5 min), the supernatant was removed, and the pellet was resuspended in 2 mL of SWM at 37 °C. Cell viability was determined using the trypan blue exclusion method, and the SWM volume was adjusted to reach a concentration of 2 × 10^6 cells/mL. In sterile 24-well culture plates, 250 µL hepatocyte suspension was gently mixed with 250 µL of dipyanone (20 µmol/L in SWM). The plates were incubated at 37 °C, and reactions were stopped after 0 or 3 h with 500 µL ice-cold acetonitrile, followed by centrifugation (15,000 g, 10 min). Negative (without SWM, hepatocytes, or dipyanone) and positive controls (diclofenac incubation) were incubated for 0 and 3 h under the same conditions to exclude nonspecific reactions and ensure proper metabolic activity. Incubates were stored at – 80° until analysis.
A 100 µL volume of incubate was mixed with 100 µL of acetonitrile and centrifuged for 10 min, 15,000 g at room temperature for protein precipitation (acetonitrile:SWM, 3:1, v/v). The supernatant was dried under a nitrogen stream at 37 °C. […] Again, the solution was centrifuged (10 min, 15,000 g) at room temperature. The resulting supernatant was transferred into vials with a glass insert, and 10 µL was injected into the chromatographic system for analysis.
The total chromatographic run time was 24 min.

[4] = target: human MOR membrane preparation (Homo sapiens, UniProt P35372); assay: biochemical
human MOR membrane preparation, sequence (P35372 whole entry): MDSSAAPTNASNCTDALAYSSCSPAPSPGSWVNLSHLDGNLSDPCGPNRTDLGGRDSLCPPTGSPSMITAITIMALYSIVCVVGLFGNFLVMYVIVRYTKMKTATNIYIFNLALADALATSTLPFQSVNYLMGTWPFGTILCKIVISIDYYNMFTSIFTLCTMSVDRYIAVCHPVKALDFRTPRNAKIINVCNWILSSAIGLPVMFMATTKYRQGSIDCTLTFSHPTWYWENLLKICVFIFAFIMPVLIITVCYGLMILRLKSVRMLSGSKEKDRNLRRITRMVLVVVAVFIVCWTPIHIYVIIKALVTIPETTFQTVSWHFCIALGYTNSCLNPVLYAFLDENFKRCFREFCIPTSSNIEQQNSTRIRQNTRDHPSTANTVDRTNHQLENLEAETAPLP

mouse [5] = system: mouse; design: method as in Bockmühl and Ehrhart 1949; details: mouse tail pinch test; ref Bockmühl and Ehrhart 1949; cited from earlier work
µ-opioid receptor = details: cited from earlier work
[6] = detected alongside other NSOs; ref Vandeputte et al. 2023; cited from earlier work
[7] = human, in vivo
Procedure: as §1, §2, §3, §4, §5, §6, §7

mice = details: ref Scott et al. 1946, 1947; cited from earlier work
[8] = target: human DOR membrane preparation (Homo sapiens, UniProt P41143); assay: HTRF-based GTP Gi binding assay, DOR; assay type: biochemical
human DOR membrane preparation, sequence (P41143 whole entry): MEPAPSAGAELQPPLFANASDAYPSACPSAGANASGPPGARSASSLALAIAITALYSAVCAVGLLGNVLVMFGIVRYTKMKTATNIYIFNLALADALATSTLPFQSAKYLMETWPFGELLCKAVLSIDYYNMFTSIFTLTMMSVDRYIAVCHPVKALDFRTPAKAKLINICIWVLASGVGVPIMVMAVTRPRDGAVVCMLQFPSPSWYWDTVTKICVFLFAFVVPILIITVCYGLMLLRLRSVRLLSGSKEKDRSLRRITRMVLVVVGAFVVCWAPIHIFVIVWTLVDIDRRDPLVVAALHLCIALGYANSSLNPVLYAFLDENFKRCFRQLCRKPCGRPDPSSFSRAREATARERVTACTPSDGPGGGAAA

[9] = design: method as in Scott et al. 1947; details: ref Scott et al. 1947; cited from earlier work
mouse [10] = system: mouse; design: method as in Janssen and Jageneau 2011; details: ref Janssen and Jageneau 2011; cited from earlier work
[11] = target: human KOR membrane preparation (Homo sapiens, UniProt P41145); assay: HTRF-based GTP Gi binding assay, KOR; assay type: biochemical
human KOR membrane preparation, sequence (P41145 whole entry): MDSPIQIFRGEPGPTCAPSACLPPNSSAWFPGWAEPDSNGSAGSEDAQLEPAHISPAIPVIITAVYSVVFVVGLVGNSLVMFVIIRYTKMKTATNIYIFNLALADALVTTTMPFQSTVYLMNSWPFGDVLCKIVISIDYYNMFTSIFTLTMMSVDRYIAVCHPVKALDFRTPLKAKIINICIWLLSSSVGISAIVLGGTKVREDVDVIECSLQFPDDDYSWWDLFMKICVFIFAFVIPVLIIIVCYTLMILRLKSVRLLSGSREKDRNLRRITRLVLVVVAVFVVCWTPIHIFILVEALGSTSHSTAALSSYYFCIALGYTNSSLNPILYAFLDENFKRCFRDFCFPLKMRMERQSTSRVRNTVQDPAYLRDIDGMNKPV

Compound: CC(N)Cc1ccccc1F (centres unmarked) [2-fluoroamphetamine]
- concentration in blood, case #2 [1]: 24 ng/mL

Compound: CC=C1N(CCCCO)C(C)CC1(c1ccccc1)c1ccccc1 (centres unmarked) [M12, 4’-[2-ethylidene-5-methyl-3,3-diphenylpyrrolidin-1-yl]butan-1’-ol]
- portion of the total metabolites' signal in urine [2]: 23–26%
- Urine #1 peak area with β-gluc [2]: 3.4 × 10^9
- Urine #1 peak area [2]: 2.3 × 10^9
- Urine #2 peak area with β-gluc [2]: 1.7 × 10^9
- Urine #2 peak area [2]: 2.1 × 10^9
- Hepatocytes peak area [3]: 1.8 × 10^7
- portion of the total metabolites' signal [3]: 50%

Compound: 2-fluoromethamphetamine
- concentration in blood, case #2 [1]: 96 ng/mL

Compound: CC=C1N(CCCC(=O)O)C(C)CC1(c1ccccc1)c1ccccc1 (centres unmarked) [M13, 4’-[2-ethylidene-5-methyl-3,3-diphenylpyrrolidin-1-yl]butanoic acid]
- portion of the total metabolites' signal in urine [2]: 61%
- Urine #1 peak area with β-gluc [2]: 5.7 × 10^9
- Urine #1 peak area [2]: 5.4 × 10^9
- Urine #2 peak area with β-gluc [2]: 3.3 × 10^9
- Urine #2 peak area [2]: 5.6 × 10^9
- Hepatocytes peak area [3]: 9.5 × 10^6
- portion of the total metabolites' signal [3]: 27%

Compound: CCC(=O)C(CC(C)N1CCCC1)(c1ccccc1)c1ccccc1 (centres unmarked) [Dipyanone, 4,4-diphenyl-6-(1’-pyrrolidinyl)-3-heptanone]
- pEC50 [4]: 7.01
- analgesic properties relative to pethidine (mouse [5]): 5–10 times
- efficacy (Emax) compared to hydromorphone at the µ-opioid receptor (µ-opioid receptor): 155%
- pEC50 (µ-opioid receptor; read-out: EC50 at MOR, β-arrestin2 recruitment assay): 7.40
- blood concentration, postmortem case in the USA [6]: 370 ng/mL
- Urine #2 peak area [7]: 1.3 × 10^10
- LD50 in mice (mice): ~ 17 mg/kg
- pEC50 [8]: 5.97
- Emax ([8]; normalised to SNC-80, mean (95% CI), n = 3, read-out: DOR Emax relative to SNC-80): 56%
- analgesic threshold [9]: 1 to 2 mg/kg
- median effective dose, mouse hot plate assay (mouse [10]): 6.82 mg/kg
- Urine #1 peak area with β-gluc [2]: 1.3 × 10^10
- Urine #1 peak area [2]: 1.1 × 10^10
- Urine #2 peak area with β-gluc [2]: 8.0 × 10^9
- pEC50 [11]: 6.42
- Emax ([11]; normalised to U-50488, mean (95% CI), n = 3, read-out: KOR Emax relative to U-50488): 13%
- Hepatocytes peak area [3]: 7.7 × 10^8
- LC-HRMS/MS peak area after incubation relative to its original value ([3]; after three hours of incubation, compared to the controls): approximately one-sixth
- concentration in urine, four dipyanone-related fatalities ([1]; Germany 2022 and 2023, own unpublished data): 80 to 5500 ng/mL
- concentration in blood, case #2 [1]: 80 ng/mL
- concentration in blood, case #1 ([1]; postmortem femoral blood): 720 ng/mL

Compound: CNC1(c2ccccc2F)CCCCC1=O (centres unmarked) [2-fluoro-deschloroketamine]
- concentration in blood, case #2 [1]: < 1.0 ng/mL
- concentration in urine, case #2 [1]: > 50 ng/mL

Compound: CC[C@@H]1CN2CC[C@@]3(O)C(=Nc4cccc(OC)c43)[C@@H]2C[C@@H]1/C(=C\OC)C(=O)OC [7-hydroxymitragynine]
- concentration in blood, case #2 [1]: 4.7 ng/mL
- concentration in urine, case #2 [1]: > 200 ng/mL

Compound: CNC1(c2ccccc2)CCCCC1=O (centres unmarked) [deschloroketamine]
- concentration in blood, case #2 [1]: 1.0 ng/mL
- concentration in urine, case #2 [1]: 23 ng/mL

Compound: mitragynine
- concentration in blood, case #2 [1]: 160 ng/mL
- concentration in urine, case #2 [1]: > 200 ng/mL

Compound: CCNC1(c2ccccc2)CCCCC1=O (centres unmarked) [deschloro-N-ethylketamine]
- concentration in blood, case #2 [1]: 46 ng/mL
- concentration in urine, case #2 [1]: > 50 ng/mL

Compound: CCC(=O)C(CC(C)N(C)C)(c1ccccc1)c1ccccc1 (centres unmarked) [methadone, reference compound]
- LD50 in mice (mice): ~ 17 mg/kg
- analgesic threshold [9]: 1 to 2 mg/kg
- median effective dose, mouse hot plate assay (mouse [10]): 5.18 mg/kg
